{"source": "patent US20220313656A1", "about": "“NEW CLASS OF ANTIBIOTICS HAVING LOW MIC-VALUES TOWARDS DIFFERENT STRAINS OF BACTERIA” (priority 2019, published 2022)", "test_in_all_cases": "MIC, serial dilution method (CLSI)", "key": {"Escherichia coli E2": {"system": "Escherichia coli E2", "type": "cell-based", "conditions": "E. coli E2, ESBL; duplicates a/b", "method": "The MIC for each compound for each bacteria strain was determined by the serial dilution method following the CLSI guidelines (CLSI Clinical and Laboratory Standards Institute: Performance Standards for Antimicrobial Susceptibility Testing: […] M100-S25. Wayne, Pa., USA; 2015.) All compounds were diluted in autoclaved H2O and stored at 4° C. […] Bacterial inoculums were prepared by inoculating 9 ml of H2O with bacterial colonies from agar plate (Oxoid, Roskilde Denmark) supplemented with bovine blood to a final yield a final density of 10^8 colony forming unit (CFU)/mL using a Sensititre™ Nephelometer (Thermo Scientific, Roskilde, Denmark). These inoculums were each in diluted 1:100 in Müller Hinton (MH) broth (Sigma, Copenhagen, Denmark). From the diluted inoculums 100 μl was transferred to each well in a 96-well plate and mixed with the compound to be MIC determined. The plate was incubated for 24 hours at 37° C. (without shaking). The MIC value was determined as the lowest concentration in which no bacterial growth could be visually detected. All MIC determinations were done in duplicates. […] Since all derivatives are new, no control strains (with reference MIC values) were available."}, "E. faecium": {"system": "E. faecium", "type": "cell-based, Enterococcus faecium", "conditions": "Enterococcus faecium, 24 h; read-out: MIC", "procedure,_shortened": "(§1)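 Broth microdilution: inocula diluted 1:100 in Müller Hinton broth are mixed with the compound, then incubated unshaken for 24 hours at 37° C. Wells are inspected visually, and the lowest growth-free concentration is taken as MIC, in duplicate.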"}, "E. coli APEC O2": {"system": "E. coli APEC O2", "type": "cell-based, Escherichia coli", "conditions": "Escherichia coli, APECO2, 24 h; read-out: MIC", "procedure,_shortened": "as §1"}, "Escherichia coli E6": {"system": "Escherichia coli E6", "type": "cell-based", "conditions": "E. coli E6, ESBL; duplicates a/b", "procedure,_shortened": "as §1"}, "Escherichia coli ESBL37": {"system": "Escherichia coli ESBL37", "type": "cell-based", "conditions": "E. coli ESBL37, Tetracycline resistant; duplicates a/b", "procedure,_shortened": "as §1"}, "Escherichia coli ESBL10": {"system": "Escherichia coli ESBL10", "type": "cell-based", "conditions": "E. coli ESBL10, Tetracycline resistant; duplicates a/b", "procedure,_shortened": "as §1"}, "Escherichia coli E4": {"system": "Escherichia coli E4", "type": "cell-based", "conditions": "E. coli E4, ESBL; duplicates a/b", "procedure,_shortened": "as §1"}, "Streptococcus equi": {"system": "Streptococcus equi", "type": "cell-based", "conditions": "24 h, read-out: MIC", "procedure,_shortened": "as §1"}, "Salmonella enteritidis": {"system": "Salmonella enteritidis", "type": "cell-based", "conditions": "Salmonella enterica, ENTERITIDIS, 24 h; read-out: MIC", "procedure,_shortened": "as §1"}, "Listeria monocytogenes": {"system": "Listeria monocytogenes", "type": "cell-based", "conditions": "24 h, read-out: MIC", "procedure,_shortened": "as §1"}, "Bacillus cereus": {"system": "Bacillus cereus", "type": "cell-based", "conditions": "24 h, read-out: MIC", "procedure,_shortened": "as §1"}, "Escherichia coli ESBL19": {"system": "Escherichia coli ESBL19", "type": "cell-based", "conditions": "E. coli ESBL19, Tetracycline resistant; duplicates a/b", "procedure,_shortened": "as §1"}, "Escherichia coli E38": {"system": "Escherichia coli E38", "type": "cell-based", "conditions": "E. coli E38, ESBL; duplicates a/b", "procedure,_shortened": "as §1"}, "Escherichia coli ESBL46": {"system": "Escherichia coli ESBL46", "type": "cell-based", "conditions": "E. coli ESBL46, Tetracycline resistant; duplicates a/b", "procedure,_shortened": "as §1"}, "Escherichia coli E5": {"system": "Escherichia coli E5", "type": "cell-based", "conditions": "E. coli E5, ESBL; duplicates a/b", "procedure,_shortened": "as §1"}, "Escherichia coli E24": {"system": "Escherichia coli E24", "type": "cell-based", "conditions": "E. coli E24, ESBL; duplicates a/b", "procedure,_shortened": "as §1"}, "Escherichia coli ESBL28": {"system": "Escherichia coli ESBL28", "type": "cell-based", "conditions": "E. coli ESBL28, Tetracycline resistant; duplicates a/b", "procedure,_shortened": "as §1"}, "Escherichia coli ESBL1": {"system": "Escherichia coli ESBL1", "type": "cell-based", "conditions": "E. coli ESBL1, Tetracycline resistant; duplicates a/b", "procedure,_shortened": "as §1"}, "E. faecalis": {"system": "E. faecalis", "type": "cell-based, Enterococcus faecalis", "conditions": "Enterococcus faecalis, 24 h; read-out: MIC", "procedure,_shortened": "as §1"}, "S. aureus CC398": {"system": "S. aureus CC398", "type": "cell-based, Staphylococcus aureus", "conditions": "Staphylococcus aureus, MRSA, 24 h; read-out: MIC", "procedure,_shortened": "as §1"}, "S. aureus USA300": {"system": "S. aureus USA300", "type": "cell-based, Staphylococcus aureus", "conditions": "Staphylococcus aureus, USA300, 24 h; read-out: MIC", "procedure,_shortened": "as §1"}, "[1]": {"system": "Staphylococus pseudintermedius", "type": "cell-based, Staphylococcus pseudintermedius", "conditions": "Staphylococcus pseudintermedius, 24 h; read-out: MIC", "procedure,_shortened": "as §1"}}, "data": [{"molecule": "CCCCCCCCCCCC[N+](C)(C)CCCN1c2ccccc2Sc2ccc(Cl)cc21.[Br-]", "note": "[Compound S7, N-(3-(2-chloro-10H-phenothiazin-10-yl)propyl)-N,N-dimethyldodecan-1-aminium bromide]", "values": [{"measurement": "MIC", "setting": "Escherichia coli E2", "value": "8/4"}, {"measurement": "MIC", "setting": "E. faecium", "value": 0.25, "unit": "µg/mL"}, {"measurement": "MIC", "setting": "E. coli APEC O2", "value": 4, "unit": "µg/mL"}, {"measurement": "MIC", "setting": "Escherichia coli E6", "value": "4/4"}, {"measurement": "MIC", "setting": "Escherichia coli ESBL37", "value": "4/4"}, {"measurement": "MIC", "setting": "Escherichia coli ESBL10", "value": "8/8"}, {"measurement": "MIC", "setting": "Escherichia coli E4", "value": "4/4"}, {"measurement": "MIC", "setting": "Streptococcus equi", "value": 1, "unit": "µg/mL"}, {"measurement": "MIC", "setting": "Salmonella enteritidis", "value": 16, "unit": "µg/mL"}, {"measurement": "MIC", "setting": "Listeria monocytogenes", "value": 0.25, "unit": "µg/mL"}, {"measurement": "MIC", "setting": "Bacillus cereus", "value": 0.25, "unit": "µg/mL"}, {"measurement": "MIC", "setting": "Escherichia coli ESBL19", "value": "4/4"}, {"measurement": "MIC", "setting": "Escherichia coli E38", "value": "4/4"}, {"measurement": "MIC", "setting": "Escherichia coli ESBL46", "value": "4/8"}, {"measurement": "MIC", "setting": "Escherichia coli E5", "value": "4/4"}, {"measurement": "MIC", "setting": "Escherichia coli E24", "value": "4/4"}, {"measurement": "MIC", "setting": "Escherichia coli ESBL28", "value": "4/4"}, {"measurement": "MIC", "setting": "Escherichia coli ESBL1", "value": "4/4"}, {"measurement": "MIC", "setting": "E. faecalis", "value": 0.5, "unit": "µg/mL"}, {"measurement": "MIC", "setting": "S. aureus CC398", "value": 0.25, "unit": "µg/mL"}, {"measurement": "MIC", "setting": "S. aureus USA300", "value": 0.5, "unit": "µg/mL"}, {"measurement": "MIC", "setting": "[1]", "value": 0.25, "unit": "µg/mL"}]}]}
